Reference: the supplement of paper PMC4862054
Values joined by “and” are separate entries in the source; they are usually repeats but may differ in a detail not shown here. Equal entries are not always repeated.

Tests used:
Assay in all cases: normalised viability (% of control), CellTiter-Blue; higher = more viable cells (about 100 = DMSO control)
Settings in all cases: incubation time: 72 h
DU-4475 = test system: DU-4475
Summary of the method: (§1)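 Compound dissolved in 5 µl medium was pre-loaded into 384-well plates, and breast cancer cell lines in 20 µl suspension were seeded on top and incubated 72 h. After adding 2.5 µl CellTiter-Blue reagent for 2 h at 37 °C, fluorescence was read at 560/590 nm. Plates were normalised to vehicle (100) and a positive kill control (0), with Z'-factor quality control. Each value is normalised viability at a single listed concentration from the series.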

BT-474 = test system: BT-474
Summary of the method: as §1

BT-549 = test system: BT-549
Summary of the method: as §1

HCC1937 = test system: HCC1937
Summary of the method: as §1

MDA-MB-231 = test system: MDA-MB-231
Summary of the method: as §1

CAL-148 = test system: CAL-148
Summary of the method: as §1

CAL-51 = test system: CAL-51
Summary of the method: as §1

Hs578T = test system: Hs578T
Summary of the method: as §1

CAL-85-1 = test system: CAL-85-1
Summary of the method: as §1

HCC1599 = test system: HCC1599
Summary of the method: as §1

MDA-MB-453 = test system: MDA-MB-453
Summary of the method: as §1

HCC1143 = test system: HCC1143
Summary of the method: as §1

MFM-223 = test system: MFM-223
Summary of the method: as §1

MDA-MB-436 = test system: MDA-MB-436
Summary of the method: as §1

MDA-MB-468 = test system: MDA-MB-468
Summary of the method: as §1

HDQ-P1 = test system: HDQ-P1
Summary of the method: as §1

CC1(C)CNc2cc(NC(=O)c3cccnc3NCc3ccncc3)ccc21 [Motesanib]
normalised viability [%]
Settings	3 nM	10 nM	30 nM	100 nM	1000 nM	10000 nM
BT-474	–	109	–	–	101	103
BT-549	–	79.1	–	–	93.5	79.2
CAL-51	109	–	110	97.2	–	–
CAL-85-1	83.1	–	80.9	85.3	–	–
CAL-148	94.8	–	83.7	90.7	–	–
DU-4475	85.6	–	79.6	83.9	–	–
HCC1143	–	79.9	–	–	82.4	70.4
HCC1599	–	83.8	–	–	98.1	95.9
HCC1937	–	104	–	–	91.5	88.5
HDQ-P1	76.7	–	95.1	86.6	–	–
Hs578T	–	104	–	–	95.5	95.7
MDA-MB-231	–	69.8	–	–	77.3	72.8
MDA-MB-436	–	72.5	–	–	63	73
MDA-MB-453	96.1	–	71.3	69.6	–	–
MDA-MB-468	–	88.3	–	–	85.3	88.2
MFM-223	–	80.8	–	–	76.4	83.2

CC1=C2C[C@H]3[C@@H](CC=C4C[C@@H](O)CC[C@@]43C)[C@@H]2CC[C@]12O[C@@H]1C[C@H](C)CN[C@H]1[C@H]2C [Cyclopamine]
normalised viability [%]
Settings	3 nM	10 nM	30 nM	100 nM	1000 nM	10000 nM
BT-474	–	135	–	–	114	132
BT-549	–	88.6	–	–	87.2	92
CAL-51	114	–	104	111	–	–
CAL-85-1	104	–	91.9	99.9	–	–
CAL-148	104	–	117	110	–	–
DU-4475	102	–	103	107	–	–
HCC1143	–	96	–	–	107	99.1
HCC1599	–	108	–	–	112	100
HCC1937	–	100	–	–	74	105
HDQ-P1	89.1	–	106	114	–	–
Hs578T	–	127	–	–	102	105
MDA-MB-231	–	107	–	–	97.2	104
MDA-MB-436	–	110	–	–	80.5	114
MDA-MB-453	123	–	101	120	–	–
MDA-MB-468	–	100	–	–	102	90.9
MFM-223	–	96	–	–	90.2	103

CC(=O)O[C@@]12CO[C@@H]1C[C@H](O)[C@@]1(C)C(=O)[C@H](O)C3=C(C)[C@@H](OC(=O)[C@H](O)[C@@H](NC(=O)OC(C)(C)C)c4ccccc4)C[C@@](O)([C@@H](OC(=O)c4ccccc4)[C@H]21)C3(C)C [Docetaxel]
Settings	normalised viability
BT-474, 1 nM	91.6% and 101%
BT-474, 100 nM	21.4% and 27.7%
BT-474, 1000 nM	16.9% and 28.5%
BT-549, 1 nM	64.5% and 58.7%
BT-549, 100 nM	24.3% and 19%
BT-549, 1000 nM	24.4% and 20.3%
CAL-51, 0.3 nM	112% and 93.8%
CAL-51, 3 nM	67.8% and 60.9%
CAL-51, 10 nM	45.5% and 33.4%
CAL-85-1, 0.3 nM	96.7% and 101%
CAL-85-1, 3 nM	56% and 56.9%
CAL-85-1, 10 nM	36.1% and 35.2%
CAL-148, 0.3 nM	97.3% and 89.1%
CAL-148, 3 nM	41.6% and 29.8%
CAL-148, 10 nM	21.9% and 19.9%
DU-4475, 0.3 nM	116% and 110%
DU-4475, 3 nM	50.8% and 35.1%
DU-4475, 10 nM	34.5% and 35.6%
HCC1143, 1 nM	79.8% and 66.2%
HCC1143, 100 nM	34.7% and 31.3%
HCC1143, 1000 nM	35.3% and 33%
HCC1599, 1 nM	134% and 119%
HCC1599, 100 nM	101% and 94.3%
HCC1599, 1000 nM	104% and 99.7%
HCC1937, 1 nM	53.9% and 76.2%
HCC1937, 100 nM	20.5% and 17.5%
HCC1937, 1000 nM	27.5% and 19%
HDQ-P1, 0.3 nM	86.7% and 84.7%
HDQ-P1, 3 nM	58.6% and 72.4%
Hs578T, 1 nM	69% and 63.9%
Hs578T, 100 nM	11.7% and 12.4%
Hs578T, 1000 nM	12.3% and 9.74%
MDA-MB-231, 1 nM	83% and 72.7%
MDA-MB-231, 100 nM	17% and 21.6%
MDA-MB-231, 1000 nM	21.6% and 21%
MDA-MB-436, 1 nM	85% and 80.1%
MDA-MB-436, 100 nM	19.3% and 34%
MDA-MB-436, 1000 nM	38.6% and 43.8%
MDA-MB-453, 0.3 nM	121% and 107%
MDA-MB-453, 3 nM	48.1% and 57.8%
MDA-MB-453, 10 nM	39.6% and 31.9%
MDA-MB-468, 1 nM	69.7% and 68.9%
MDA-MB-468, 100 nM	53% and 46.7%
MDA-MB-468, 1000 nM	46.3% and 52.4%
MFM-223, 1 nM	84.9% and 81.8%
MFM-223, 100 nM	43.6% and 47.1%
MFM-223, 1000 nM	47.8% and 41.5%

COc1cc(F)c(F)c(Nc2ccc(I)cc2F)c1NS(=O)(=O)C1(C[C@H](O)CO)CC1 [RDEA119]
normalised viability [%]
Settings	3 nM	10 nM	30 nM	100 nM	1000 nM	10000 nM
BT-474	–	108	–	–	103	110
BT-549	–	98.7	–	–	87.5	66.4
CAL-51	97	–	84.5	81.2	–	–
CAL-85-1	95.2	–	98.8	97.3	–	–
CAL-148	91.9	–	80.7	80	–	–
DU-4475	91.4	–	61.2	28.2	–	–
HCC1143	–	117	–	–	62.8	61.7
HCC1599	–	92.5	–	–	78.6	82
HCC1937	–	102	–	–	72.4	62.8
HDQ-P1	81.5	–	88	110	–	–
Hs578T	–	103	–	–	69.7	54.5
MDA-MB-231	–	73.7	–	–	28.7	29.3
MDA-MB-436	–	93.3	–	–	103	84.6
MDA-MB-453	87.9	–	95.5	98.7	–	–
MDA-MB-468	–	94.2	–	–	78.3	51
MFM-223	–	94.8	–	–	75.7	54.7

Oc1ncnc2[nH]ncc12 [Allopurinol]
normalised viability [%]
Settings	3 nM	10 nM	30 nM	100 nM	1000 nM	10000 nM
BT-474	–	114	–	–	116	102
BT-549	–	105	–	–	86.6	99.1
CAL-51	98.2	–	91.9	94.8	–	–
CAL-85-1	109	–	98	106	–	–
CAL-148	113	–	121	120	–	–
DU-4475	104	–	92.1	97	–	–
HCC1143	–	119	–	–	123	108
HCC1599	–	87.1	–	–	77.3	90.1
HCC1937	–	87.2	–	–	79.2	96.2
HDQ-P1	95.9	–	93.1	91.8	–	–
Hs578T	–	108	–	–	120	106
MDA-MB-231	–	91.8	–	–	93.9	107
MDA-MB-436	–	100	–	–	101	93.4
MDA-MB-453	115	–	105	105	–	–
MDA-MB-468	–	102	–	–	99.7	103
MFM-223	–	95.3	–	–	110	105

O=C1CN2Cc3c(ccc(Cl)c3Cl)N=C2N1 [Anagrelide]
normalised viability [%]
Settings	3 nM	10 nM	30 nM	100 nM	1000 nM	10000 nM
BT-474	–	126	–	–	132	130
BT-549	–	88.7	–	–	89.1	99.4
CAL-51	110	–	96.5	84.3	–	–
CAL-85-1	102	–	84.7	97.1	–	–
CAL-148	96.5	–	102	103	–	–
DU-4475	89.5	–	79.5	96.1	–	–
HCC1143	–	83.5	–	–	87.8	83.2
HCC1599	–	112	–	–	93.1	89.3
HCC1937	–	95.6	–	–	82.5	77.8
HDQ-P1	116	–	95	99.2	–	–
Hs578T	–	101	–	–	90.9	88.2
MDA-MB-231	–	103	–	–	95.5	104
MDA-MB-436	–	79.2	–	–	97	99
MDA-MB-453	110	–	102	98.5	–	–
MDA-MB-468	–	106	–	–	103	111
MFM-223	–	100	–	–	99	104
